This is an account of results in the pKa sets of Baltruschat and Czodrowski (2020).

The term pKa denotes the pH at which an ionisable group is half protonated. Read a low pKa as a group that gives up its proton readily.

For the first series the following is noted: acidic group.
In turn, `[O-][n+]1ccc(O)cc1` displayed a pKa of 5.76.
The same measure, in the same setting: the figure for `CC1=NS(=O)(=O)c2cc(Cl)ccc2N1` is 8.62.
Still for that read-out and setting: the figure for `Nc1ncc2[nH]c(-c3ccccc3)nc2n1` is 9.2; for `O=C([O-])c1c(O)ccc2ccccc12` it is 10.9.
On the same count and under the same terms, under `CCC(=O)CC(=O)CC` stands 9.82.
In the case of `Oc1cccc2c1Nc1ccccc1N2`, the pKa turned out to be 10.9.
Still for that read-out and setting: the figure for `O=C1NC(=S)NC12CCCCC2` is 8.79; for `C=C(C)[C@@H]1C[NH2+][C@H](C(=O)[O-])[C@@H]1CC(=O)O` it is 4.58; for `N#CC(CC(=O)O)Cc1ccccc1` (configuration not stated) it is 3.91.
`Cc1cc(Cl)cc(Cl)c1O` yielded a pKa of 7.85.
Same read-out and setting: under `CC#CCC(=O)O` stands 3.6.
The same measure, in the same setting: the figure for `Cn1cnc(C(=O)[O-])c1C(=O)O` is 3.9; for `CCc1ccc(C(C)C)cc1O` it is 10.6.
Same read-out and setting: under `O=C(O)c1c2ccccc2cc2ccccc12` stands 3.65.
For the molecule `c1cc(-c2nn[nH]n2)cc(-c2nnn[nH]2)c1`, the pKa was found to be 3.38.
Still for that read-out and setting: the figure for `[O-]c1cc(O)cc[nH+]1` is 6.5.
As for `CCC(=O)CC(C)=O`, the pKa turned out to be 9.36.
On the same count and under the same terms, under `O=C(CC(=O)C(F)(F)F)c1ccccc1` stands 6.3; under `CC=C=CC(=O)CC(Cc1ccccc1)C(=O)[O-]` (configuration not stated), 13.9.
`[O-]c1ccccc1O` showed a pKa of 11.6.
Same read-out and setting: under `O=C1NS(=O)(=O)c2ccccc21` stands 1.76; under `O=C(NO)c1cccc([N+](=O)[O-])c1`, 8.07.
On the same count and under the same terms, the figure for `Cc1ccc(C(=O)C[n+]2cccc3c4ccccc4ccc32)cc1` is 11.7; for `O=[N+]([O-])c1cccc(S)c1` it is 5.24.
The same measure, in the same setting: under `NCCc1ccc(O)cc1` stands 10.8; under `O=C/C(O)=C/O`, 5.03; under `CCSC(C)(O)O`, 12.1.
Turning to `O=S(=O)(Nc1ccc(Cl)cc1)C(F)(F)F`, the pKa amounted to 3.9.
Still for that read-out and setting: under `O=c1cc(-c2ccccc2)oc2c(O)cccc12` stands 7.82; under `O=CC1CCCCC1=O` (configuration not stated), 6.35; under `CCCCCc1c(-c2ccccc2)n[nH]c1O`, 8.4.
On the same count and under the same terms, the figure for `Nc1ccc(B(O)O)cc1` is 9.17.

Staying with this series, now noted: basic group.
Take `Nc1ncc2[nH]c(-c3ccccc3)nc2n1`: the pKa was 3.98.
The same measure, in the same setting: the figure for `CC1CCCNC1` (configuration not stated) is 10.9; for `Cc1cccc(C=O)n1` it is 4.55.
Still for that read-out and setting: the figure for `Cc1ccnc(C)c1` is 6.77; for `CN(C)CCO` it is 9.36; for `CC1=Nc2ccc([N+](=O)[O-])cc2N=C(C)C1` it is 4.95.
The same measure, in the same setting: the figure for `CCCCCCCCCCCCCCCC[NH+](CCCCCCCCCCCCCCCC)CCn1ccnc1` is 4.
The molecule `Cc1ccc(N(C)CO)cc1` had a pKa of 3.73.
Consider `c1ccc2cc3ncccc3cc2c1`, for which the pKa is 4.92.
On to `CN(C)Cc1cc(Br)ccc1[O-]`, for which the pKa turned out to be 10.7.
The same measure, in the same setting: under `CN(C)CCCCCCCNC(=O)/C=N/[O-]` stands 10.5; under `CC(CC(c1ccccc1)c1ccccc1)N1CCOCC1` (configuration not stated), 6.9; under `CC(C)(C)[C@]1(O)CCN2C[C@H]3c4ccccc4CCc4cccc(c43)[C@@H]2C1`, 7.15.
Still for that read-out and setting: the figure for `C=C(C)C(=O)OCCNCC(C)C` is 8.91.
Still for that read-out and setting: under `CC[NH+](CC)CCCCC(C)Nc1c2ccc(Cl)cc2nc2ccc(OC)cc12` (configuration not stated) stands 7.74; under `Cc1cc(C)nc([S-])n1`, 8.5; under `CN[C@H]1C[C@H]1NC`, 8.73.
Take `N/C(C/C(N)=N/O)=N\O`: the pKa was found to be 4.77.
The molecule `CC(C)NCCCCCC[NH2+]C(C)C` displayed a pKa of 10.9.
In turn, `NCCc1ccc(O)cc1` returned a pKa of 9.45.
In the case of `COc1ccc(C(N)=O)cc1`, the pKa was -1.6.
The same measure, in the same setting: the figure for `OCCCCCc1ccccn1` is 5.93; for `CN(c1ccccc1)C1CCCCC1` it is 6.35.
In the case of `Nc1ccc(B(O)O)cc1`, the pKa worked out at 3.71.
For the molecule `Cc1ccnc(/N=C/c2ccc([N+](=O)[O-])cc2)n1`, the pKa amounted to 3.66.
